Assay results: patent US12472226B2, “Cell-permeable peptide” (priority 2019, dated 2025)
Non-standard residues stand in square brackets, D forms with d. No end group written: not given here. *: point of attachment. FITC = O=C1OC2(c3ccc(O)cc3Oc3cc(O)ccc32)c2ccc(NC(=S)*)cc21; Ahx = NCCCCCC(=O)O

Key:
HT-1080 cells = test: Test of inducing cell-death in vitro (Calcein-AM/PI dead cell rate); type: cell-based, human; settings: for increase in the dead cell rate: day 21
Description: (§1) Human fibrosarcoma-derived HT-1080 cells (HT-1080 cells, JCRB cell bank) were used as cancer cells in the test for monitoring changes in mitochondrial membrane potential. HT-1080 cells, human osteosarcoma cell line Hos cells (Hos cells, JCRB cell bank), human histiocytic lymphoma/macrophage U937 cells (U937 cells, JCRB cell bank), human myeloid leukemia HL-60 cells (HL-60 cells, JCRB cell bank), acute monocytic leukemia THP-1 cells (THP-1 cells, JCRB cell bank), human alveolar basal epithelial adenocarcinoma cell A549 cells (A549 cells, Cell Resource Center for Biomedical Research, Institute of Development, Aging and Cancer, Tohoku University), human pancreatic carcinoma cells (MIA Paca 2 cells, Cell Resource Center for Biomedical Research, Institute of Development, Aging and Cancer, Tohoku University) and well differentiated human liver carcinoma-derived cell line HuH7 cells (HuH7 cells, Cell Resource Center for Biomedical Research, Institute of Development, Aging and Cancer, Tohoku University) were used as cancer cells in an in vitro cell-death induction test of cancer cells and a nuclear transport test of Example 2. Normal human gingival fibroblast cells Gin-1 (Gin-1 cells, DS Pharma Biomedical) were used as a control. The above-described cells were each inoculated into a 96-well culture plate (Falcon) at 5,000 cells/[…] and subjected to the following tests.
The peptide of SEQ ID NO: 1 labeled with FITC (Example 2) was used for the test of inducing cell-death in vitro in cancer cells. It was prepared the test example to which 100 μL of Example 2 and further 10% FBS were added and cultured for 9 days under conditions of 200 μL of serum-supplemented medium (Alpha modification of Eagle's MEM (α-MEM) (Thermo Fisher Scientific)+10% FBS). Furthermore, it was also produced the test example that was cultured for 21 days with the whole amount of Example 2-supplemented medium replaced every 7 days. As a control, the cells were cultured in a serum-supplemented medium (α-MEM+10% FBS) without addition and were used. A supernatant was removed after the completion of the culture. The cells were washed once with PBS and stained in PBS to which a fluorescent dye for living cell staining Calcein-AM (DOJINDO LABORATORIES) (final concentration: 0.1 μg/mL) and a fluorescent dye for dead cell staining Propidium Iodide (PI) (DOJINDO LABORATORIES) (final concentration: 0.3 μg/mL) were added, at 37° C. in a 5% CO2 cell incubator for 30 minutes. The living cells and dead cells were separately stained with Calcein-AM and PI, respectively and imaged with the confocal laser scanning microscope LSM800. Next, the dead cell rate relative to the number of total cells was analyzed using ImageJ.
The results are represented by the average value of the dead cell rate (the number red cells stained with IP/the number of total cells×100(%))±standard deviation (SD). In FIG. 2A, the vertical axis represents the rate of cell death when each cell was cultured with Example 2 (50 μg/mL) for 9 days and the horizontal axis represents various types of cells. The increase in the dead cell rate of the Gin-1 cells was not observed.
The concentrations of Examples 2 and 4 to 6 were adjusted to 12.5, 25, 50 and 100 μg/mL, respectively and then administrated to the HT-1080 cells for 9 days tested by the same method as in Test Example 2A. The cell staining and subsequent analyses of the dead cell rate relative to the number of total cells were performed in the same manner as Test Example 2A.

Gin-1 cells = test: Test on nuclear transport (confocal Z scan, DAPI); type: cell-based, human; settings: 50 μg/mL, 9 days
Description: as §1
(§2) Further, 50 μg/mL of Example 2 was added to the Gin-1 or above cancer cells. The cells were cultured for 9 days and scanned with Z scan technique using the confocal laser scanning microscope LSM800 after dyed with DAPI. FIG. 5A is each photograph of XY, XZ and YZ cross sections that was merged with Example 2 (green) and DAPI (blue) in the Gin-1 or above-described cancer cells. […] The color of the images merged with the Example 2 and DAPI dye took on light blue in the U937, H1-60, THP-1 and Hos cells.

HL-60 cells = test: Test on nuclear transport (confocal Z scan, DAPI); type: cell-based, human; settings: H1-60 cells, 50 μg/mL, 9 days
Description: as §1, §2

Hos cells = test: Test on nuclear transport (confocal Z scan, DAPI); type: cell-based, human; settings: 50 μg/mL, 9 days
Description: as §1, §2

THP-1 cells = test: Test on nuclear transport (confocal Z scan, DAPI); type: cell-based, human; settings: 50 μg/mL, 9 days
Description: as §1, §2

U937 cells = test: Test on nuclear transport (confocal Z scan, DAPI); type: cell-based, human; settings: 50 μg/mL, 9 days
Description: as §1, §2

[1] = system: cytoplasm and nuclear protein of HT-1080 cells; test: Analytical test of cytoplasm and nuclear protein bound by Example 2 (immunoprecipitation, shotgun analysis); type: binding, human; settings: 50 μg/mL, 5 days
Experimental: The HT-1080 cells (20 million cells) were cultured in 4 mL of serum-supplemented medium (α-MEM+10% FBS) to be 50 μg/mL at the final concentration of Example 2 for 5 days at 37° C. and 5% CO2 in the cell incubator. The cells were washed with PBS and collected. The protein was individually harvested from the cytoplasm and the nucleus using NE-PER Nuclear and Cytoplasmic Extraction Reagents (PIERCE). 80 μL of A/G agarose was added to 1 mg of each protein from the cytoplasm and the nucleus and stirred at 4° C. for 1 hour, the samples were pretreated. 10 μg of IgG Fraction Monoclonal Mouse Anti-Fluorescein (FITC) (Jackson ImmunoResearch) was added to the pretreated solution (1 mg/600 μL) and shaken at 4° C. overnight. Subsequently, 20 μL of A/G agarose was added to the mixtures and shaken at 4° C. for 2 hours. After the mixtures were washed three times with a wash buffer, 50 μL of elution buffer (Thermo Fisher Scientific) was added to the A/G agarose. […]
Proteins were identified from the cytoplasm or nucleus and listed with the accession number, protein name, identified number of detected peptides, identified number of unique peptides, confidence score and amount of cytoplasmic protein or nuclear protein(fmol), except for the antibodies used in immunoprecipitation and Example 2 from the detected proteins.

“Example 2: peptide of SEQ ID NO: 1 labeled with FITC, bound via an Ahx linker at the N-terminus ({FITC}-[Ahx]KDNRGNLLQCVCTGNGRGEWKC; cysteine pairing not given here)” was tested, and the “increase in the dead cell rate” value (HT-1080 cells; 6.25 μg/mL) was no less than 75%, the “increase in the dead cell rate” value (HT-1080 cells; 12.5 μg/mL) was no less than 75% and the “increase in the dead cell rate” value (HT-1080 cells; 25 μg/mL) was no less than 95%. The “increase in the dead cell rate vs control” value (HT-1080 cells; 50 μg/mL, 9 days) was “significant difference at the level of 1%”, the “increase in the dead cell rate” value (HT-1080 cells; 50 μg/mL) was no less than 95% and the “increase in the dead cell rate” value (HT-1080 cells; 100 μg/mL) was no less than 95%. For the same substance, the intracellular localization (Gin-1 cells) was “remain still in the cytoplasm”, the intracellular localization (HL-60 cells) was “transfer to a nucleus and bind to a chromosome DNA” and the intracellular localization (Hos cells) was “transfer to a nucleus and bind to a chromosome DNA”. For the same substance, the intracellular localization (THP-1 cells) was “transfer to a nucleus and bind to a chromosome DNA”, the intracellular localization (U937 cells) was “transfer to a nucleus and bind to a chromosome DNA” and the “nuclear transfer proved biochemically” value [1] was “transfer to the inside of the nucleus”. The “proteins bound (identified from cytoplasm or nucleus)” value [1] was “linker histones H1-3, core histones (H2A, H2B, H3-2 and H4), 22 types of 40S ribosomal proteins and 28 types of 60S ribosomal proteins”.
